Data published in the NIST ThermoML archive (doi:10.1021/je400755x).
± gives the expanded uncertainty stated by the source.

Conditions: Liquid, Closed cell (Static) method

| vapor or sublimation pressure (313.05 K) [kPa] | vapor or sublimation pressure (322.92 K) [kPa] | vapor or sublimation pressure (333 K) [kPa] | vapor or sublimation pressure (342.76 K) [kPa] | vapor or sublimation pressure (352.84 K) [kPa] | vapor or sublimation pressure (362.75 K) [kPa] | vapor or sublimation pressure (369.36 K) [kPa] | SMILES | vapor or sublimation pressure (298.88 K) [kPa] | vapor or sublimation pressure (308.19 K) [kPa] | vapor or sublimation pressure (313.35 K) [kPa] | vapor or sublimation pressure (323.13 K) [kPa] | vapor or sublimation pressure (323.19 K) [kPa] | vapor or sublimation pressure (323.75 K) [kPa] | vapor or sublimation pressure (333.47 K) [kPa] | vapor or sublimation pressure (343.12 K) [kPa] | vapor or sublimation pressure (343.83 K) [kPa] | vapor or sublimation pressure (352.3 K) [kPa] | vapor or sublimation pressure (353.05 K) [kPa] | vapor or sublimation pressure (363.03 K) [kPa] | vapor or sublimation pressure (369.15 K) [kPa] |
| --- | --- | --- | --- | --- | --- | --- | --- | --- | --- | --- | --- | --- | --- | --- | --- | --- | --- | --- | --- | --- |
| 56 ± 20 | 78 ± 20 | 109 ± 20 | 147 ± 20 | 197 ± 20 | 256 ± 20 | 303 ± 20 | C=CCCC=C [1,5-hexadiene] |  |  |  |  |  |  |  |  |  |  |  |  |  |
|  |  |  |  |  |  |  | C=CCCl [3-chloro-1-propene] | 55 ± 20 | 75 ± 20 | 90 ± 20 | 125 ± 20 | 126 ± 20 | 126 ± 20 | 173 ± 20 | 228 ± 20 | 233 ± 20 | 294 ± 20 | 301 ± 20 | 389 ± 20 | 454 ± 20 |
